EC50 data for 25 compounds are collected here from patent publication US12673954B2 (BRISTOL-MYERS SQUIBB COMPANY, priority 2021, dated 2026).

In experiment [1] the test system is IRF pathway, THP1-Dual™ cells. Kind of experiment: STING reporter assay in THP1-Dual cells, IRF pathway (Lucia luciferase, QUANTI-Luc). The experiment is classed as cell-based, human. The following applies: THP1-Dual cells, 10% human plasma, 20 hours, Lucia luciferase, 100% activation = 100 μM cGAMP, read-out: IRF (EC50 μM). From the text:
(§1) THP1-Dual™ cells were derived from the human THP-1 monocyte cell line by stable integration of two inducible reporter constructs. To this end, THP1-Dual™ cells allow the simultaneous study of the NF-κB pathway, by monitoring the activity of SEAP, and the IRF pathway by assessing the activity of a secreted luciferase (Lucia). Both reporter proteins are readily measurable in the cell culture supernatant when using QUANTI-Blue™, a SEAP detection reagent, and QUANTI-Luc™, a luciferase detection reagent.
(§2) THP1-Dual™ cells induce the activation of NF-κB in response to STING agonists. They also trigger the IRF pathway upon stimulation with STING agonists, such as cGAMP. Here, the THP-1-Dual cells were used to assess STING specific binders for function on the cellular level.
(§3) Serial dilutions of compounds in DMSO were added to low volume 384 well plates at 100 nl/well using an ECHO acoustic dispenser (Labcyte, model 550) to achieve final starting concentration of 100 μM in cell suspension. […] One column of the plate was reserved for treatment with cGAMP at 100 μM for 100% activation calculation and one column for no treatment (DMSO only) for baseline activation. Plates were then incubated in 37° C. incubator at 5% CO2 for 20 hours.
(§4) Plates were read on the Envision (Perkin Elmer) at 620 nm wavelength (OD620). In the luciferase assay, 5 μl of Quantiluc (Invivogen, Rep-qlc2) is added to white 384 well plates seeded with THP1 cells and read at 5 minutes on the Envision (Perkin Elmer) using a luminescence protocol (RLU). 100% activation was determined by value (RLU) of THP-1 Dual STING cells stimulated with 100 μM cGAMP (Invivogen, cat #TLRL-NACGA23-5).

For experiment [2], the system named is NF-κB pathway, THP1-Dual™ cells. Briefly: STING reporter assay in THP1-Dual cells, NF-κB pathway (SEAP, QUANTI-Blue). The experiment is classed as cell-based, human. Particulars: THP1-Dual cells, 10% human plasma, 20 hours, SEAP, 100% activation = 100 μM cGAMP, read-out: NFkB (EC50 μM).
Source text: as §1, §2, §3, §4
On the technique in general: Reporter assays use an easily measured gene product as a stand-in for the process of interest.

Where two headings read alike, the source gives them in different places.

The EC50 is the concentration at which the effect is half-maximal. Take `COc1cc(C(=O)OC(C)C(F)(F)F)c2oc(CNC(=O)c3cnn4cccnc34)cc2c1` (single isomer, unassigned) [EXAMPLE 345, 1,1,1-Trifluoropropan-2-yl 5-methoxy-2-((pyrazolo[1,5-a]pyrimidine-3-carboxamido)methyl)benzofuran-7-carboxylate]: the EC50 in experiment [1] (Homo sapiens, THP1-Dual, 20 h) turned out to be 5.7 µM; in experiment [2] (Homo sapiens, THP1-Dual, 20 h) it was 3.6 µM.

In the case of `COc1cc(C(=O)OC(C)C(F)(F)F)c2oc(CNC(=O)c3cnn4cccnc34)cc2c1` (single isomer, unassigned) [EXAMPLE 346, 1,1,1-Trifluoropropan-2-yl 5-methoxy-2-((pyrazolo[1,5-a]pyrimidine-3-carboxamido)methyl)benzofuran-7-carboxylate], the EC50 is 3.2 µM in experiment [1] and 2.3 µM in experiment [2].

On to `COC(OC(=O)c1cc(C#N)cc2cc(CNC(=O)c3cnn4cccnc34)oc12)C(F)(F)F` (single isomer, unassigned) [EXAMPLE 347, 2,2,2-Trifluoro-1-methoxyethyl 5-cyano-2-((pyrazolo[1,5-a]pyrimidine-3-carboxamido)methyl)benzofuran-7-carboxylate], for which the EC50 was found to be 3.3 µM in experiment [1] (Homo sapiens, THP1-Dual, 20 h) and 2.3 µM in experiment [2] (Homo sapiens, THP1-Dual, 20 h).

For the compound `COC(OC(=O)c1cc(C#N)cc2cc(CNC(=O)c3cnn4cccnc34)oc12)C(F)(F)F` (single isomer, unassigned) [EXAMPLE 348, 2,2,2-Trifluoro-1-methoxyethyl 5-cyano-2-((pyrazolo[1,5-a]pyrimidine-3-carboxamido)methyl)benzofuran-7-carboxylate], the EC50 amounted to 5.6 µM in experiment [1] and 3.9 µM in experiment [2].

For the compound `CC(OC(=O)c1cc(C(F)(F)F)cc2cc(CNC(=O)c3cnn4cccnc34)oc12)C(F)(F)F` (single isomer, unassigned) [EXAMPLE 349, 1,1,1-Trifluoropropan-2-yl 2-((pyrazolo[1,5-a]pyrimidine-3-carboxamido)methyl)-5-(trifluoromethyl)benzofuran-7-carboxylate], the EC50 in experiment [1] was determined as 3.8 µM; in experiment [2], 3.5 µM.

With `CC(OC(=O)c1cc(C(F)(F)F)cc2cc(CNC(=O)c3cnn4cccnc34)oc12)C(F)(F)F` (single isomer, unassigned) [EXAMPLE 350, 1,1,1-Trifluoropropan-2-yl 2-((pyrazolo[1,5-a]pyrimidine-3-carboxamido)methyl)-5-(trifluoromethyl)benzofuran-7-carboxylate], the values for the EC50 in experiment [1] and in experiment [2] were 17 µM and 54 µM, respectively.

Take `COC(OC(=O)c1cc(C(F)(F)F)cc2cc(CNC(=O)c3cnn4cccnc34)oc12)C(F)(F)F` (single isomer, unassigned) [EXAMPLE 351, 2,2,2-Trifluoro-1-methoxyethyl 2-((pyrazolo[1,5-a]pyrimidine-3-carboxamido)methyl)-5-(trifluoromethyl)benzofuran-7-carboxylate]: the EC50 in experiment [1] (Homo sapiens, THP1-Dual, 20 h) was 1.9 µM; in experiment [2] (Homo sapiens, THP1-Dual, 20 h), 2.4 µM.

As for `COC(OC(=O)c1cc(C(F)(F)F)cc2cc(CNC(=O)c3cnn4cccnc34)oc12)C(F)(F)F` (single isomer, unassigned) [EXAMPLE 352, 2,2,2-Trifluoro-1-methoxyethyl 2-((pyrazolo[1,5-a]pyrimidine-3-carboxamido)methyl)-5-(trifluoromethyl)benzofuran-7-carboxylate], the EC50 in experiment [1] is 1.9 µM; in experiment [2] it was 3.4 µM.

As for `COc1ccn2ncc(C(=O)NCc3cc4cc(Cl)cc(C(=O)OC(C)C(F)(F)F)c4o3)c2n1` (single isomer, unassigned) [EXAMPLE 368, 1,1,1-Trifluoropropan-2-yl 5-chloro-2-((5-methoxypyrazolo[1,5-a]pyrimidine-3-carboxamido)methyl)benzofuran-7-carboxylate], the EC50 in experiment [1] (Homo sapiens, THP1-Dual, 20 h) is 11 µM; in experiment [2] (Homo sapiens, THP1-Dual, 20 h) it was 11 µM.

In the case of `COC(=O)c1cc(C)cc2cc(C(C)NC(=O)c3cnn4cccnc34)oc12` (single isomer, unassigned) [Example 97, Methyl-5-methyl-2-(1-(pyrazolo[1,5-a]pyrimidine-3-carboxamido)ethyl)benzofuran-7-carboxylate], the EC50 in experiment [1] (Homo sapiens, THP1-Dual, 20 h) came out at 2.1 µM; in experiment [2] (Homo sapiens, THP1-Dual, 20 h), 1.5 µM.

Take `COC(=O)c1cccc2cc(CN3Cc4cccnc4C3=O)oc12` [EXAMPLE 1, Methyl 2-((7-oxo-5,7-dihydro-6H-pyrrolo[3,4-b]pyridin-6-yl)methyl)benzofuran-7-carboxylate]: the EC50 in experiment [1] (Homo sapiens, THP1-Dual, 20 h) came to 96 µM; in experiment [2] (Homo sapiens, THP1-Dual, 20 h) it was 98 µM.

As to `COC(=O)c1cccc2cc(CN3Cc4c(F)cncc4C3=O)oc12` [EXAMPLE 3, Methyl 2-((7-fluoro-3-oxo-1,3-dihydro-2H-pyrrolo[3,4-c]pyridin-2-yl)methyl)benzofuran-7-carboxylate], the EC50 in experiment [1] (Homo sapiens, THP1-Dual, 20 h) is 51 µM; in experiment [2] (Homo sapiens, THP1-Dual, 20 h), 92 µM.

On to `COC(=O)c1cccc2cc(CN3Cc4ccnc(F)c4C3=O)oc12` [EXAMPLE 4, Methyl 2-((4-fluoro-3-oxo-1,3-dihydro-2H-pyrrolo[3,4-c]pyridin-2-yl)methyl)benzofuran-7-carboxylate], for which the EC50 in experiment [1] (Homo sapiens, THP1-Dual, 20 h) stood at 13 µM; in experiment [2] (Homo sapiens, THP1-Dual, 20 h), 14 µM.

Consider `COC(=O)c1cccc2cc(CN3CCc4ccncc4C3=O)oc12` [EXAMPLE 5, Methyl 2-((1-oxo-3,4-dihydro-2,7-naphthyridin-2(1H)-yl)methyl)benzofuran-7-carboxylate], for which the EC50 in experiment [1] (Homo sapiens, THP1-Dual, 20 h) turned out to be 5.7 µM; in experiment [2] (Homo sapiens, THP1-Dual, 20 h) it was 6.3 µM.

Regarding `COC(=O)c1cccc2cc(Cn3cnc4ccncc4c3=O)oc12` [EXAMPLE 6, Methyl 2-((4-oxopyrido[4,3-d]pyrimidin-3(4H)-yl)methyl)benzofuran-7-carboxylate], the EC50 in experiment [1] (Homo sapiens, THP1-Dual, 20 h) was found to be 5.1 µM; in experiment [2] (Homo sapiens, THP1-Dual, 20 h) it was 3.1 µM.

`COC(=O)c1cccc2cc(Cn3ccc4ccncc4c3=O)oc12` [EXAMPLE 7, Methyl 2-((1-oxo-2,7-naphthyridin-2(1H)-yl)methyl)benzofuran-7-carboxylate]: the half-maximal effective concentration (EC50) in experiment [1] (Homo sapiens, THP1-Dual, 20 h) was 4.3 µM; in experiment [2] (Homo sapiens, THP1-Dual, 20 h) it was 4.1 µM.

Consider `COC(=O)c1cccc2cc(CNC(=O)c3cnccn3)oc12` [EXAMPLE 8, Methyl 2-((pyrazine-2-carboxamido)methyl)benzofuran-7-carboxylate], for which the EC50 was 21 µM in experiment [1] (Homo sapiens, THP1-Dual, 20 h) and 18 µM in experiment [2] (Homo sapiens, THP1-Dual, 20 h).

As for `COC(=O)c1cccc2cc(CNC(=O)c3cnn4cccnc34)oc12` [EXAMPLE 9, Methyl 2-((pyrazolo[1,5-a]pyrimidine-3-carboxamido)methyl) benzofuran-7-carboxylate], the EC50 was 2.1 µM in experiment [1] and 1.8 µM in experiment [2].

With `COC(=O)c1cccc2cc(CNC(=O)c3cnn4ccc(C)nc34)oc12` [EXAMPLE 10, Methyl 2-((5-methylpyrazolo[1,5-a]pyrimidine-3-carboxamido)methyl) benzofuran-7-carboxylate], the EC50 in experiment [1] is 7.5 µM; in experiment [2], 7.6 µM.

Consider `COC(=O)c1cccc2cc(CNC(=O)c3cnn4cc(C)cnc34)oc12` [EXAMPLE 11, Methyl 2-((6-methylpyrazolo[1,5-a]pyrimidine-3-carboxamido)methyl) benzofuran-7-carboxylate], for which the EC50 was 6.1 µM in experiment [1] and 6.7 µM in experiment [2].

With `COC(=O)c1cccc2cc(CNC(=O)c3cnn4c(C)ccnc34)oc12` [EXAMPLE 12, Methyl 2-((7-methylpyrazolo[1,5-a]pyrimidine-3-carboxamido)methyl) benzofuran-7-carboxylate], the EC50 in experiment [1] stood at 33 µM; in experiment [2] it was 39 µM.

`COC(=O)c1cccc2cc(CNC(=O)c3cnn4cc(Cl)cnc34)oc12` [EXAMPLE 13, Methyl 2-((6-chloropyrazolo[1,5-a]pyrimidine-3-carboxamido)methyl) benzofuran-7-carboxylate]: the EC50 in experiment [1] amounted to 8.7 µM; in experiment [2], 11 µM.

Turning to `COC(=O)c1cccc2cc(CNC(=O)c3cncc4cccnc34)oc12` [EXAMPLE 14, Methyl 2-((1,6-naphthyridine-8-carboxamido)methyl)benzofuran-7-carboxylate], the EC50 was found to be 3.8 µM in experiment [1] (Homo sapiens, THP1-Dual, 20 h) and 6 µM in experiment [2] (Homo sapiens, THP1-Dual, 20 h).

Regarding `COC(=O)c1cccc2cc(CNC(=O)c3cncnc3)oc12` [EXAMPLE 15, Methyl 2-((pyrimidine-5-carboxamido)methyl)benzofuran-7-carboxylate], the EC50 came out at 44 µM in experiment [1] (Homo sapiens, THP1-Dual, 20 h) and 39 µM in experiment [2] (Homo sapiens, THP1-Dual, 20 h).

Turning to `COC(=O)c1cccc2cc(CNC(=O)c3cncnc3OC)oc12` [EXAMPLE 16, Methyl 2-((4-methoxypyrimidine-5-carboxamido)methyl)benzofuran-7-carboxylate], the EC50 in experiment [1] (Homo sapiens, THP1-Dual, 20 h) came to 6.8 µM; in experiment [2] (Homo sapiens, THP1-Dual, 20 h), 9.3 µM.
